Data as given in patent US8034827B2, “Phenanthridine derivatives as bradykinin antagonists” (Richter Gegeon Nyrt., priority 2005, dated 2011).

Key:
[1] = target: T1, human recombinant bradykinin1 receptors (Homo sapiens, UniProt P46663); test: Human recombinant bradykinin B1 receptor binding; conditions: CHO cell membranes, [3H]-[Des-Arg10] Kallidin radioligand
T1 construct: host or cells: CHO cells
T1 sequence (P46663 1-353): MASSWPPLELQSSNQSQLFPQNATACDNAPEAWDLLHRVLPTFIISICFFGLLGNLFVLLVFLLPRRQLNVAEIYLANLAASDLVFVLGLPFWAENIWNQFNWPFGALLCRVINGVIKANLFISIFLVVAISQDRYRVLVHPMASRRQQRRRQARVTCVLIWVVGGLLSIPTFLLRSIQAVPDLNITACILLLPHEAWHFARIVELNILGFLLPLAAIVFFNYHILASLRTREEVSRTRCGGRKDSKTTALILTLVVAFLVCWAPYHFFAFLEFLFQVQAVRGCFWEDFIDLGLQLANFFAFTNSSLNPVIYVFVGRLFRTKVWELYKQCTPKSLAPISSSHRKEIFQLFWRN
Description: Receptor Binding Assays 1. Human Recombinant Bradykinin B1 Receptor Binding
Binding assays were carried out on human recombinant bradykinin1 receptors (expressed in CHO cells) according to the Euroscreen Technical Data Sheet (Cat. No.: ES-091). 20 μg protein/tube was incubated with [3,4-prolyl-3,4-^3H(N)]-[Des-Arg^10] Kallidin as radioligand. Non specific binding was determined in the presence of 10 μM Lys-des-Arg^9-Bradykinin. The final incubation volume was 250 μl. Samples were incubated for 15 min. at 25° C. then were rapidly vacuum filtered through GF/B filters presoaked for at least 1 h in 0.5% PEI. Radioactivity was determined by liquid scintillation spectroscopy.

[2] = target: T2, recombinant human B1 receptors (Homo sapiens, UniProt P46663); test: Antagonist potency by measurement of cytosolic calcium ion concentration in CHO-B1 cells (agonist LysDABK); type: cell-based; conditions: inhibition of LysDABK (EC80)-evoked [Ca2+]i elevation, fluo-4, read-out: B1 func.
T2 construct: host or cells: CHO (CHO-B1)
T2 sequence (P46663 1-353): T1 sequence (P46663 1-353)
Description: Assessment of Antagonist Potency at B1 and B2 Receptors In Vitro by Measurement of Cytosolic Calcium Ion Concentration with a Plate Reader Fluorimeter in Cells Expressing Recombinant Human B1 or B2 Receptors
Chinese hamster ovary (CHO) cells stably expressing recombinant human B1 (CHO-B1, Euroscreen) or B2 (CHO-B2, Perkin-Elmer) receptors were cultured in Dulbecco's Modified Eagle's Medium (DMEM) containing 10% Fetal Calf Serum (FCS), 100 U/ml penicillin, 0.1 mg/ml streptomycin, 0.25 μg/ml amphotericin B, 1% Minimum Essential Medium Eagle (MEM), non essential amino acid solution, 600 μg/ml G418, 1% pyruvate (for the B2 cell line). Cells were kept at 37° C. in a humidified incubator in an atmosphere of 5% CO2/95% air and were passaged 1:4 three times a week. Cells were plated at 1.5-2.5×10^4 cell/well on standard 96-well microplates, measurements of cytosolic calcium ion concentration ([Ca^2+]i) were carried out 1-2 days after cell plating.
Measurements of [Ca^2+]i were carried out on CHO-B1 and CHO-B2 cells stably expressing human B1 and B2 receptors, respectively. Cells were grown in standard 96-well microplates and before the measurement were loaded with a fluorescent Ca^2+-sensitive dye, fluo-4/AM (2 μM): after removing the culture medium the dye was added to the cells (dissolved in assay buffer: 145 mM NaCl, 5 mM KCl, 2 mM MgCl2, 2 mM CaCl2, 10 mM HEPES, 20 mM D-glucose, 2 mM probenecid, 100 μl/well) and cells were incubated at 37° C. in a humidified incubator in an atmosphere of 5% CO2/95% air for 40-120 min. To stop dye loading cells were washed twice with assay buffer. After washing, various concentrations of the test compounds (diluted in extracellular medium from a DMSO stock solution, final DMSO concentration was <0.1%) or buffer were added to each well depending on the experimental setup. After incubation at 37° C. for 20-25 min. baseline and agonist-evoked changes of [Ca^2+]i were measured column by column with a plate reader fluorimeter (Fluoroskan Ascent, Labsystems). Excitation and detection of emission was carried out from the bottom of the plate. Filters used for Fluo-4: excitation filter −485 nm, emission filter −538 nm. The whole measurement process was performed at 37° C. and was controlled by custom software. Inhibitory potency of the test compounds was assessed by measuring the reduction in the agonist-evoked [Ca^2+]i-elevation in the presence of different concentrations of the compounds. The agonists were LysDABK for CHO-B1, and bradykinin for CHO-B2 cells. Agonists were applied at an EC80 concentration, the EC80-values were derived from daily determined dose-response curves. Fluorescence data were expressed as ΔF/F (fluorescence change normalized to baseline). All treatments on a single plate were measured in multiple wells. Data from all wells with the same treatment were averaged and the average values were used for analysis. Inhibitory potency of a compound at a single concentration point was expressed as percent inhibition of the control agonist response. Sigmoidal concentration-inhibition curves were fitted to the data (derived from at least three independent experiments) and IC50-values were determined as the concentration that produces half of the maximal inhibition caused by the compound.

Row | SMILES | Ki [1] | IC50 [2]
1 | CC(C)N1CCN(C(=O)C2CCN(S(=O)(=O)c3ccc(NCC(c4ccccc4)c4ccccc4)c(C(=O)N4CCOCC4)c3)CC2)CC1 [Example 70002460, 4-{2-[(2,2-diphenyl-ethyl)-amino]-5-{[4-/(4-<1-methyl-ethyl>-1-piperazinyl)-carbonyl/-1-piperidinyl]-sulfonyl}-benzoyl}-morpholine, reference compound] | < 0.1 µM | 0.1 to 0.5 µM
2 | O=C(C[C@@H]1C(=O)Nc2ccccc2N1S(=O)(=O)c1ccc(Cl)c(Cl)c1)NCCc1ccc(C2=NCCN2)cc1 [Example 70004287, 2-[1-(3,4-dichloro-benzenesulfonyl)-3-oxo-1,2,3,4-tetrahydroquinoxalin-2(R)-yl]-N-{2-[4-(4,5-dihydro-1H-imidazol-2-yl)-phenyl]-ethyl}-acetamide, reference compound] | < 0.1 µM | < 0.1 µM
